# Experimental data taken from PubChem BioAssay AID248 (DTP/NCI, 2004).
# Where “and” joins values, the source holds several entries; their conditions need not be identical. Equal values may be shown once. Toxic doses and inconclusive results are not listed.
# System: L1210 leukemia ip in BDF1 mice, survival T/C
# Assay: NCI In Vivo Anticancer Drug Screen. Data for tumor model L1210 Leukemia (intraperitoneal) in B6D2F1 (BDF1) mice
# Details: endpoint: mean survival time, higher = longer survival
# How it was run: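 Tumor cells were implanted, animals were treated, and survival was followed. The result divides the treated measurement by the vehicle-control measurement.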
# [1] = dose: 100.0 mg/kg/injection, schedule: Q04DX003 (ip), vehicle: saline
# [2] = dose: 200.0 mg/kg/injection, schedule: Q04DX003 (ip), vehicle: saline
# [3] = dose: 400.0 mg/kg/injection, schedule: Q04DX003 (ip), vehicle: saline
# [4] = dose: 12.5 mg/kg/injection, schedule: Q04DX003 (ip), vehicle: Klucel (hydroxypropylcellulose) (HPC)
# [5] = dose: 25.0 mg/kg/injection, schedule: Q04DX003 (ip), vehicle: Klucel (hydroxypropylcellulose) (HPC)
# [6] = dose: 25.0 mg/kg/injection, schedule: Q01DX009 (ip), vehicle: Klucel (hydroxypropylcellulose) (HPC)
# [7] = dose: 50.0 mg/kg/injection, schedule: Q01DX009 (ip), vehicle: Klucel (hydroxypropylcellulose) (HPC)
# [8] = dose: 100.0 mg/kg/injection, schedule: Q01DX009 (ip), vehicle: Klucel (hydroxypropylcellulose) (HPC)
# [9] = dose: 50.0 mg/kg/injection, schedule: Q04DX003 (ip), vehicle: Klucel (hydroxypropylcellulose) (HPC)
# [10] = dose: 100.0 mg/kg/injection, schedule: Q04DX003 (ip), vehicle: Klucel (hydroxypropylcellulose) (HPC)
# [11] = dose: 200.0 mg/kg/injection, schedule: Q04DX003 (ip), vehicle: Klucel (hydroxypropylcellulose) (HPC)
# [12] = dose: 400.0 mg/kg/injection, schedule: Q04DX003 (ip), vehicle: Klucel (hydroxypropylcellulose) (HPC)
# [13] = dose: 100.0 mg/kg/injection, schedule: Q01DX001 (ip), vehicle: carboxymethylcellulose (CMC)
# [14] = dose: 200.0 mg/kg/injection, schedule: Q01DX001 (ip), vehicle: carboxymethylcellulose (CMC)
# [15] = dose: 400.0 mg/kg/injection, schedule: Q01DX001 (ip), vehicle: carboxymethylcellulose (CMC)
# [16] = dose: 100.0 mg/kg/injection, schedule: Q01DX009 (ip), vehicle: saline
# [17] = dose: 200.0 mg/kg/injection, schedule: Q01DX009 (ip), vehicle: saline
# [18] = dose: 400.0 mg/kg/injection, schedule: Q01DX009 (ip), vehicle: saline
smiles,measurement,setting,value
OC(CBr)C(O)CBr (stereo not drawn),T/C,"dose: 12.5 mg/kg/injection, schedule: Q01DX009 (ip), vehicle: saline",101 % of control
same,T/C,"dose: 25.0 mg/kg/injection, schedule: Q01DX009 (ip), vehicle: saline",97 % of control
same,T/C,"dose: 50.0 mg/kg/injection, schedule: Q01DX009 (ip), vehicle: saline",97 % of control
CCOC(=O)N=C=S,T/C,[1],95 % of control
same,T/C,[2],103 % of control
same,T/C,[3],95 % of control
NC(=O)c1ccccc1N=NN(CCF)CCF,T/C,"dose: 6.25 mg/kg/injection, schedule: Q01DX009 (ip), vehicle: Klucel (hydroxypropylcellulose) (HPC)",120 % of control
same,T/C,"dose: 6.25 mg/kg/injection, schedule: Q04DX003 (ip), vehicle: Klucel (hydroxypropylcellulose) (HPC)",112 % of control
same,T/C,"dose: 12.0 mg/kg/injection, schedule: Q04DX003 (ip), vehicle: Klucel (hydroxypropylcellulose) (HPC)",153 % of control
same,T/C,"dose: 12.5 mg/kg/injection, schedule: Q01DX001 (ip), vehicle: Klucel (hydroxypropylcellulose) (HPC)",106 % of control
same,T/C,[4],156 % of control
same,T/C,"dose: 25.0 mg/kg/injection, schedule: Q01DX001 (ip), vehicle: Klucel (hydroxypropylcellulose) (HPC)",113 % of control
same,T/C,[5],104 % of control
Nc1nc(Cl)c2nnn(C3CC(O)C(CO)C3)c2n1 (stereo not drawn),T/C,[6],118 % of control
same,T/C,[7],105 % of control
same,T/C,[8],100 % of control
O=C(Sc1c[nH]c(=O)[nH]c1=O)c1ccc(N(CCCl)CCCl)cc1,T/C,[5],96 % of control
same,T/C,[9],102 % of control
same,T/C,[10],94 % of control
same,T/C,[11],100 % of control
same,T/C,[12],105 % of control
O=S(=O)(O)c1ccc(CCCCCCCCl)cc1,T/C,"dose: 100.0 mg/kg/injection, schedule: Q04DX002 (ip), vehicle: Klucel (hydroxypropylcellulose) (HPC)",100 % of control
same,T/C,"dose: 200.0 mg/kg/injection, schedule: Q04DX002 (ip), vehicle: Klucel (hydroxypropylcellulose) (HPC)",90 % of control
Cc1cc(C)c(OC2=C(c3c(C)cc(C)cc3C)C(=O)c3ccccc32)c(C)c1,T/C,[13],91 % of control
same,T/C,[14],89 % of control
same,T/C,[15],96 % of control
CCCCSCC(N)C(=O)O (stereo not drawn),T/C,[8],96 % of control
same,T/C,[10],92 % of control
same,T/C,"dose: 200.0 mg/kg/injection, schedule: Q01DX009 (ip), vehicle: Klucel (hydroxypropylcellulose) (HPC)",96 % of control
same,T/C,[11],94 % of control
same,T/C,"dose: 400.0 mg/kg/injection, schedule: Q01DX009 (ip), vehicle: Klucel (hydroxypropylcellulose) (HPC)",98 % of control
same,T/C,[12],103 % of control
C=CC(=O)N(C)OC,T/C,"dose: 100.0 mg/kg/injection, schedule: Q01DX001 (ip), vehicle: saline",101 % of control
same,T/C,[1],100 % of control
same,T/C,"dose: 200.0 mg/kg/injection, schedule: Q01DX001 (ip), vehicle: saline",96 % of control
same,T/C,[2],104 % of control
same,T/C,"dose: 400.0 mg/kg/injection, schedule: Q01DX001 (ip), vehicle: saline",112 % of control
same,T/C,[3],98 % of control
O=[N+]([O-])c1ccc(Nc2ccncc2)cc1,T/C,[16],103 % of control
same,T/C,[1],106 % of control
same,T/C,[17],106 % of control
same,T/C,[2],103 % of control
same,T/C,[18],104 % of control
same,T/C,[3],114 % of control
COc1ccc2c(c1OC)C13CCCCC1C(C2)[N+](C)(C)CC3 (stereo not drawn),T/C,[4],100 % of control and 91 % of control
same,T/C,[6],100 % of control
same,T/C,[5],94 % of control and 106 % of control
same,T/C,[7],89 % of control
same,T/C,[9],96 % of control and 88 % of control
same,T/C,[10],98 % of control
O=C1OC(=O)c2c(Br)c(Br)c(Br)c(Br)c21,T/C,[16],103 % of control
same,T/C,[17],97 % of control
same,T/C,[18],107 % of control
COc1ccc(C(=O)/C=C/c2ccc(OC)c(OC)c2)cc1,T/C,[10],95 % of control
same,T/C,[11],92 % of control
same,T/C,[12],100 % of control
O=C(Nc1ccccc1Cl)c1cccnc1,T/C,"dose: 100.0 mg/kg/injection, schedule: Q04DX003 (ip), vehicle: other",96 % of control
same,T/C,"dose: 200.0 mg/kg/injection, schedule: Q04DX003 (ip), vehicle: other",97 % of control
same,T/C,"dose: 400.0 mg/kg/injection, schedule: Q04DX003 (ip), vehicle: other",94 % of control
C=C(C)COc1c(C)c(C)c(OS(=O)(=O)c2ccc(Br)cc2)c(C)c1C,T/C,"dose: 100.0 mg/kg/injection, schedule: Q01DX001 (ip), vehicle: Klucel (hydroxypropylcellulose) (HPC)",97 % of control
same,T/C,"dose: 200.0 mg/kg/injection, schedule: Q01DX001 (ip), vehicle: Klucel (hydroxypropylcellulose) (HPC)",89 % of control
same,T/C,"dose: 400.0 mg/kg/injection, schedule: Q01DX001 (ip), vehicle: Klucel (hydroxypropylcellulose) (HPC)",100 % of control
COc1ccc2c(c1)NP(=S)(c1ccccc1)N2 (stereo not drawn),T/C,"dose: 50.0 mg/kg/injection, schedule: Q01DX001 (ip), vehicle: gum acacia",101 % of control
same,T/C,"dose: 100.0 mg/kg/injection, schedule: Q01DX001 (ip), vehicle: gum acacia",91 % of control
same,T/C,"dose: 100.0 mg/kg/injection, schedule: Q01DX009 (ip), vehicle: gum acacia",91 % of control
same,T/C,"dose: 200.0 mg/kg/injection, schedule: Q01DX001 (ip), vehicle: gum acacia",100 % of control
same,T/C,"dose: 200.0 mg/kg/injection, schedule: Q01DX009 (ip), vehicle: gum acacia",91 % of control
same,T/C,"dose: 400.0 mg/kg/injection, schedule: Q01DX009 (ip), vehicle: gum acacia",91 % of control
[O-][n+]1ccccc1Br,T/C,"dose: 50.0 mg/kg/injection, schedule: Q01DX009 (ip), vehicle: water",104 % of control
same,T/C,"dose: 100.0 mg/kg/injection, schedule: Q01DX009 (ip), vehicle: water",98 % of control
same,T/C,"dose: 100.0 mg/kg/injection, schedule: Q04DX003 (ip), vehicle: water",95 % of control
same,T/C,"dose: 150.0 mg/kg/injection, schedule: Q01DX009 (ip), vehicle: water",95 % of control
same,T/C,"dose: 200.0 mg/kg/injection, schedule: Q04DX003 (ip), vehicle: water",115 % of control
C/C(=C\Cl)C(=O)O,T/C,[1],99 % of control
same,T/C,[2],101 % of control
Cc1ccc(C(C)C)cc1NC(=O)c1cccc([N+](=O)[O-])c1,T/C,"dose: 100.0 mg/kg/injection, schedule: Q01DX009 (ip), vehicle: other",98 % of control
same,T/C,"dose: 200.0 mg/kg/injection, schedule: Q01DX009 (ip), vehicle: other",88 % of control
same,T/C,"dose: 400.0 mg/kg/injection, schedule: Q01DX009 (ip), vehicle: other",98 % of control
O=C1NCC/C1=C\c1cc2c(cc1[N+](=O)[O-])OCO2,T/C,"dose: 50.0 mg/kg/injection, schedule: Q01DX001 (ip), vehicle: carboxymethylcellulose (CMC)",88 % of control
same,T/C,[13],90 % of control
same,T/C,[14],100 % of control
same,T/C,[15],90 % of control
O=c1oc2ccc([N+](=O)[O-])cc2o1,T/C,"dose: 75.0 mg/kg/injection, schedule: Q01DX001 (ip), vehicle: acetone",108 % of control
O=[N+]([O-])c1cccc(C(O)C=C(C(F)(F)F)C(F)(F)F)c1 (stereo not drawn),T/C,"dose: 25.0 mg/kg/injection, schedule: Q01DX009 (ip), vehicle: saline with Tween-80",100 % of control
same,T/C,"dose: 50.0 mg/kg/injection, schedule: Q01DX009 (ip), vehicle: saline with Tween-80",98 % of control
same,T/C,"dose: 100.0 mg/kg/injection, schedule: Q01DX009 (ip), vehicle: saline with Tween-80",98 % of control
same,T/C,"dose: 100.0 mg/kg/injection, schedule: Q04DX003 (ip), vehicle: saline with Tween-80",103 % of control
Nc1ccc(Cl)cc1Br,T/C,"dose: 50.0 mg/kg/injection, schedule: Q01DX009 (ip), vehicle: acetone",95 % of control
same,T/C,"dose: 100.0 mg/kg/injection, schedule: Q01DX009 (ip), vehicle: acetone",92 % of control
same,T/C,"dose: 100.0 mg/kg/injection, schedule: Q04DX003 (ip), vehicle: acetone",96 % of control
same,T/C,"dose: 200.0 mg/kg/injection, schedule: Q01DX009 (ip), vehicle: acetone",90 % of control
same,T/C,"dose: 200.0 mg/kg/injection, schedule: Q04DX003 (ip), vehicle: acetone",100 % of control
same,T/C,"dose: 400.0 mg/kg/injection, schedule: Q04DX003 (ip), vehicle: acetone",96 % of control
